Among the data in patent publication US8802064B2, “Inhibitors of fatty acid amide hydrolase” (Infinity Pharmaceuticals, Inc., priority 2009, dated 2014) are Ki values, retold here.

In this test the target is T1, human FAAH (Homo sapiens, UniProt O00519).
T1 construct: host or cells: COS-7 cells, transient transfection (FuGENE 6); 13,000 g membrane fraction solubilised in 1% Triton X-100
T1 sequence (O00519 1-579): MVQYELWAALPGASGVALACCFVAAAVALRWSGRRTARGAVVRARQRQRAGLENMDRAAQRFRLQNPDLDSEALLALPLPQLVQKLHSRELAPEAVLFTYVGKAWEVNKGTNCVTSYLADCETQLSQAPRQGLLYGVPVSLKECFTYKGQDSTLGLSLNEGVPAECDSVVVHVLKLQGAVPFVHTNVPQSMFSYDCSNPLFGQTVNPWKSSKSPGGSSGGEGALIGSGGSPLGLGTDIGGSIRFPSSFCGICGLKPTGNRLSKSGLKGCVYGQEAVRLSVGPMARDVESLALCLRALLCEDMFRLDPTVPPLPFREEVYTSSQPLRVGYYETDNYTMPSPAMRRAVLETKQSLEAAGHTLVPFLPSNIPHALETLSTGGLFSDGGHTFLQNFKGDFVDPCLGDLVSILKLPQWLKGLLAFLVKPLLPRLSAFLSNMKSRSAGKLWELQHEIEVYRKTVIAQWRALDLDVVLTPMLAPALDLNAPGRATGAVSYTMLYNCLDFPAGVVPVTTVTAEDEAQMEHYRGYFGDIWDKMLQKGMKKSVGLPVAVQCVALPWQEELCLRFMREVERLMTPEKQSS
The experiment in a line: Human FAAH inhibition assay (fluorescence, AMC arachidonoyl amide hydrolysis). The note with it: human FAAH from transfected COS-7 cells; 20 μM AMC arachidonoyl amide; 30 min preincubation, 4 h reaction at room temperature. The test is classed as biochemical. The protocol:
Exemplary compounds are set forth in the Examples provided below. Compounds were assayed as inhibitors of human FAAH using the method described in detail in Example 16.
The following assays were used to determine the inhibition of FAAH: (1) a fluorescence-based assay (Manjunath et al., Analytical Biochemistry (2005) 343:143-151); and (2) a microsome-based fluorescent assay (Wang et al., Biomolecular Screening (2006) 1-9).
COS-7 cells were split the day before, 1:5 into 150 mm×25 mm cell culture dishes (Corning Inc., Cat. No. 430599). Transient transfection took place at 30-40% confluency according to FuGENE 6 Transfection Reagent (Roche, Cat. No. 11814 443 001).
The FuGENE transfection 6 reagent (45 uL) was added to 1410 μL of media (DMEM, serum free without pen/strep) in a 15 mL conical tube and incubated at room temp for 5 minutes, followed by the addition of FAAH plasmid DNA (15 μg) (OriGene Cat. No. TC119221, Genbank Accession No. NM_001441.1, 0.67 ug/uL) and a further incubation of 15 minutes at room temperature. The resulting solution was added into one dish of 30-40% confluent COS-7 cells in a dropwise manner. The COS-7 cell dish was subsequently incubated for 48 hours. The cells were then harvested.
Media was aspirated from the dishes and the cells rinsed with 10 mL PBS. The PBS was removed and 3 mL of PBS added to the dish. The dish was scraped to resuspend the cells, and the subsequent cell suspension collected into a 15 mL conical tube. The cells were pelleted by centrifugation at 1200 rpm for 5 minutes in a bench top centrifuge. PBS was removed and the cell pellet snap frozen in liquid nitrogen and stored at 80° C.
COS-7 Cells FAAH purification: • (1) Fractionation: Frozen cell pellets from transient transfections were thawed on ice and resuspended in 12.5 mM Hepes pH 8.0, 100 mM NaCl, 1 mM EDTA (10 mL/0.2 g cell pellet). The pellets were dounce homogenized and then sonicated to produce cell extract. The cell extract was subsequently centrifuged at 1000 g to remove cellular debris. The pellet was discarded and the supernatant centrifuged at 13,000 g for 20 minutes. The pellet contained membrane bound FAAH. The supernatant was discarded and the pellet resolubilized. • (2) Resolubilization: The fraction of interest, (13,000 g, membrane fraction) was resuspended in 2.3 mL resuspension buffer (20 mM Hepes pH 7.8, 10% v/v Glycerol, 1 mM EDTA, 1% Triton X-100) and the sample incubated on ice for 1 hour and then centrifuged to remove any particulate matter. The supernatant containing solubilized human FAAH was aliquoted and snap frozen in liquid nitrogen and stored at 80° C. until use. • (3) Characterization: Protein Concentration determined by Bradford assay. • SDS gel and Western blot to confirm presence of FAAH • FAAH activity assay • Km determination—96-well assay • Linear dependence—96-well assay • Standard compound Ki determination—384-well assay
Rat FAAH biochemical assays were carried out in a 96 well flat bottom black nontreated polystyrene plates (Corning Costar Catalogue #3915). FAAH reaction buffer: 50 mM Hepes (pH 7.5), 1 mM EDTA, 0.2% Triton X-100. FAAH substrate—AMC Arachidonoyl Amide (Cayman Chemicals Company, Catalog #10005098). The reaction was read in an Envision microtiter plate reader [Excitation filter 355 nm (40 nm bandpass); Emmision filter 460 nm (25 nm bandpass)]. The raw fluorescence was plotted on the y axis and the inhibitor concentration on the x axis to give a dose response inhibition curve. The data was fitted to a single site competitive inhibition equation, fixing the Km for the rat and human enzyme to 12 μM and 9 μM respectively.
The principle of this assay was the hydrolysis of AMC-Arichodonoyl, a fluorescent analogue of Anandamide, which results in the formation of Arachidonic acid and AMC. The formation of AMC results in an increase in fluorescence (see, for example, Manjunath et al., Analytical Biochemistry (2005) 343:143-151; and Wang et al., Biomolecular Screening (2006) 1-9). […]

Take `Cn1ccc2cc(B(O)O)ccc2c1=O` [Compound 1]: the Ki – broadly, a dissociation constant, usually derived from enzyme kinetics or from competition with a known ligand – was 0.01 to 0.1 µM.
`O=c1c2ccc(B(O)O)cc2ccn1Cc1ccccc1` [Compound 2]: the Ki lay in the range of 0.01 to 0.1 µM.
Next, `O=c1c2ccc(B(O)O)cc2ccn1CCc1ccccc1` [Compound 3]: at most 0.01 µM; `CC(c1ccccc1)n1ccc2cc(B(O)O)ccc2c1=O` (stereo not drawn) [Compound 4]: 0.01 to 0.1 µM.
Next, `CC(Cn1ccc2cc(B(O)O)ccc2c1=O)c1ccccc1` (stereo not drawn) [Compound 5]: 0.01 to 0.1 µM.
The result for `CC(Cc1ccccc1)n1ccc2cc(B(O)O)ccc2c1=O` (stereo not drawn) [Compound 6] reads 0.01 to 0.1 µM.
In the case of `CCCCCCn1ccc2cc(B(O)O)ccc2c1=O` [Compound 7], the inhibitory constant (Ki) was at most 0.01 µM.
In the case of `Cc1nc2cc(B(O)O)ccc2c(=O)n1C` [Compound 8], the Ki was over 1 µM.
Next, `Cc1nc2cc(B(O)O)ccc2c(=O)n1CCc1ccccc1` [Compound 9]: 0.01 to 0.1 µM; `O=c1c2ccc(B(O)O)cc2ncn1CCc1ccccc1` [Compound 10]: at most 0.01 µM; `O=c1c2cc(B(O)O)ccc2ccn1CCc1ccccc1` [Compound 11]: 0.01 to 0.1 µM.
`O=C1c2ccc(B(O)O)cc2CCN1CCc1ccccc1` [Compound 12]: the Ki was at most 0.01 µM.
Next, `O=c1c2ccc(B(O)O)cc2cnn1CCc1ccccc1` [Compound 13]: at most 0.01 µM.
Next, `O=c1[nH]c(CCc2ccccc2)nc2ccc(B(O)O)cc12` [Compound 14]: 0.1 to 1 µM; `O=C1c2ccc(B(O)O)cc2CN1CCc1ccccc1` [Compound 15]: at most 0.01 µM.
